Activity calls are given as the source filed them.
Legend:
[1] = molecular target: Peroxisome proliferator-activated receptor gamma/Nuclear receptor corepressor 2 (Homo sapiens, UniProt P37231+Q9Y618); experiment: Counterscreen for NR2E3 inverse agonists: TR-FRET-based biochemical high throughput dose response assay to identify inverse agonists of the interaction between peroxisome proliferator-activated receptor gamma (PPARg) and nuclear receptor co-repressor 2 (NCOR2).; assay type: functional
[2] = molecular target: T1, Photoreceptor-specific nuclear receptor (Homo sapiens, UniProt Q9Y5X4); experiment: NR2E3 inverse agonists, dose response, biochemical, TR-FRET (AID 463256); assay type: functional
T1 sequence (Q9Y5X4 whole entry): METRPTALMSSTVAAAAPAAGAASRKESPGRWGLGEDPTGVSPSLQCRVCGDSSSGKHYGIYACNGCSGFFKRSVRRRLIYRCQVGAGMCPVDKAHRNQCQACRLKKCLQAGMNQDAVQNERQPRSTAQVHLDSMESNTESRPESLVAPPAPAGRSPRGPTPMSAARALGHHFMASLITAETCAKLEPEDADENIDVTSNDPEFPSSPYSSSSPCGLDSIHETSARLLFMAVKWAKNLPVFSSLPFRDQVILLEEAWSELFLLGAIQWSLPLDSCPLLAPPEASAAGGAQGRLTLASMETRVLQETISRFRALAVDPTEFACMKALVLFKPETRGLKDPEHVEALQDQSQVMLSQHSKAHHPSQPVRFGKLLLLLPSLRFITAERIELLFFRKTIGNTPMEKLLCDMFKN

[3] = Plasmodium falciparum Dd2 Sybr green parasite growth Measured in Cell-Based and Microorganism Combination System Using Plate Reader - 2153-01_Inhibitor_Dose_DryPowder_Activity_Set3.; assay type: functional
[4] = P. falciparum Dd2 growth inhibitors, dose response, SYBR Green, cherry-picked samples (AID 1159567); assay type: functional, cell-based
[5] = P. falciparum 3D7-ScDHODH growth inhibitors, dose response, SYBR Green, dry powder samples (AID 1159570); assay type: functional, cell-based;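 note: parasite growth measured after 72 hours of compound exposure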
[6] = P. falciparum Dd2 growth inhibitors, dose response, SYBR Green, dry powder samples (AID 1159566); assay type: functional, cell-based;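 note: potency for growth inhibition with lower SYBR green DNA signal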
[7] = P. falciparum ATP4 D1247Y mutant growth inhibitors, dose response, NITD609-resistant line, SYBR Green, dry powder (AID 1159571); assay type: functional, cell-based;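 note: parasites synchronized at ring stage by sorbitol before testing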
[8] = molecular target: T2, Sphingosine 1-phosphate receptor 2 (Homo sapiens, UniProt O95136); experiment: Dose Response Cell Based Assay for Agonists of the S1P2 Receptor. [Related pubchem assays: 729, 736, 843 ]; assay type: functional
T2 sequence (O95136 whole entry): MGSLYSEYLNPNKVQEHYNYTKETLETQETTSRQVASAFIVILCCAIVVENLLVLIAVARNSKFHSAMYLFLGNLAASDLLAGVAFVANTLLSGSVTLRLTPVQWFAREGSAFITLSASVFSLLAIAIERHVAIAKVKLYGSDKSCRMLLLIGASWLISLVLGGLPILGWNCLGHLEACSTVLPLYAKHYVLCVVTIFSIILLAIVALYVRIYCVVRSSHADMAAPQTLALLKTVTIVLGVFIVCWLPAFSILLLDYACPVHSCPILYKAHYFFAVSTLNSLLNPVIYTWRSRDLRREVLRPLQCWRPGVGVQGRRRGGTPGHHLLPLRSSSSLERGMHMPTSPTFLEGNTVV

[9] = molecular target: T2, Sphingosine 1-phosphate receptor 2; experiment: Dose Response Cell Based Assay for Agonists of the S1P2 Receptor of Purchased Analogues. [Related pubchem assays: 729, 843, 854, 736 ]; assay type: functional
[10] = cytotoxicity toward HCT116 cells – cell-based, CellTiter-Glo luminescence, IC50, dose response (AID 1117332); assay type: functional; conditions: HCT-116
[11] = Concentration-dependent survival of SW480 colon cancer line, luminescence detection with CellTiter-Glo, half-maximal inhibitory concentration (AID 1117338); assay type: functional
[12] = RKO cell viability reduction, dose response, CellTiter-Glo luminescence (AID 1117322); assay type: functional
[13] = HCT116 cell viability decrease, GSK3B pretreatment – CellTiter-Glo, IC50, dose response (AID 1117339); assay type: functional; conditions: HCT-116
[14] = cytotoxicity toward HT-29 cells – cell-based, CellTiter-Glo luminescence, IC50, dose response (AID 1117330); assay type: functional
[15] = CellTiter-Glo luminescent dose response of DLD-1 viability loss (AID 1117352); assay type: functional
[16] = cytotoxicity toward Colo320 cells – cell-based, CellTiter-Glo luminescence, IC50, dose response (AID 1117334); assay type: functional; conditions: COLO 320
[17] = SNU-C1 cell viability reduction, dose response, CellTiter-Glo luminescence (AID 1117323); assay type: functional, cell-based
Nonstructural protein 1 = Nonstructural protein 1 (Influenza A virus, UniProt Q194T2); assay type: functional, Influenza A virus (A/California/07/2009(H1N1))
Chain of Nonstructural protein 1 (Q194T2 whole entry): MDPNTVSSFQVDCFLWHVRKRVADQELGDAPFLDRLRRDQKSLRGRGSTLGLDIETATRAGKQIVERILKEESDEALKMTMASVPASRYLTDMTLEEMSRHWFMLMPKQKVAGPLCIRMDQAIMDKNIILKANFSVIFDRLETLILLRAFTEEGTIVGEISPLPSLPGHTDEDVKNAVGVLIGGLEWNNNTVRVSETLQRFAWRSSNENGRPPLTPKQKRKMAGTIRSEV

[18] = enhancers of respiration in Yfh1-depleted yeast, dose response, Friedreich's ataxia, plus single-dose screen (AID 1465); assay type: functional;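 note: yeast depleted of Yfh1p frataxin homolog grown on glycerol needing respiration; WST-1 tetrazolium dye reduction as measure of cellular dehydrogenase metabolic activity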
[19] = molecular target: 5-hydroxytryptamine receptor 1A (Homo sapiens, UniProt P08908); assay type: functional
Chain of 5-hydroxytryptamine receptor 1A (P08908 whole entry): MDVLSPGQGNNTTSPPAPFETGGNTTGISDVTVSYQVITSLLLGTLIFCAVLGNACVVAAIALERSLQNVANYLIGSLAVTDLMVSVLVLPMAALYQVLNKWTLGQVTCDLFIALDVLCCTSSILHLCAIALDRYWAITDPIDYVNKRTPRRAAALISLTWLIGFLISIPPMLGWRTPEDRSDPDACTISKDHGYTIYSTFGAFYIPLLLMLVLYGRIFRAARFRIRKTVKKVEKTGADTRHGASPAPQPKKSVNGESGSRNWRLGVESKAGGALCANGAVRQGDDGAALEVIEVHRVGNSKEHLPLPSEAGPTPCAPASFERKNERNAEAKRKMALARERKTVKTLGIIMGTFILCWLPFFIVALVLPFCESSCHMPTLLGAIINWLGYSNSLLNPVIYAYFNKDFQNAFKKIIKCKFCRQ

[20] = Luminescence Cell-Based Dose Confirmation HTS to Identify Inhibitors of Platelet Dense Granule Release. [Related pubchem assays: 1663 (Primary HTS), 1678 (Summary of Project)]; assay type: functional
[21] = molecular target: Luciferin 4-monooxygenase (Photinus pyralis, UniProt P08659); experiment: firefly luciferase enzyme inhibitors, dose response, biochemical, luminescence (AID 1891)
Chain of Luciferin 4-monooxygenase (P08659 whole entry): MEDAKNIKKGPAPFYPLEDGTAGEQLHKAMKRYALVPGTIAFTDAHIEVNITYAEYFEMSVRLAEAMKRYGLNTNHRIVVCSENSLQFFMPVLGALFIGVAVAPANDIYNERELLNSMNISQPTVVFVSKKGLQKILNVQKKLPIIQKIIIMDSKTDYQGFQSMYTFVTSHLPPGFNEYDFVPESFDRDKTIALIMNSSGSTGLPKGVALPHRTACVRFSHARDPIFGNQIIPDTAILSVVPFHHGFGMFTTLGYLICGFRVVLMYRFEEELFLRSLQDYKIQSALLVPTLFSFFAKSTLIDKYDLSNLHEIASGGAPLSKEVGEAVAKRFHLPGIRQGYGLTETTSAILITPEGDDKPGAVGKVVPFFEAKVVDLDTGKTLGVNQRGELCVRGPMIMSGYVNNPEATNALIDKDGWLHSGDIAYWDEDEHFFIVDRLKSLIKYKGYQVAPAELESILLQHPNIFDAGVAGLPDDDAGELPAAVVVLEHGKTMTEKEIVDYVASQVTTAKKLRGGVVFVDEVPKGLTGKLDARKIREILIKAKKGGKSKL

[22] = Fluorescence Cell-Based Dose Response to Identify Inhibitors of Thrombin Receptor-Activating Peptide SFLLRN-Mediated P-Selectin Induction on Platelets. [Related pubchem assays: 1663 (Primary HTS), 1889 (retest at dose ), 1891 (counterscreen), 1678 (Project Summary)]; assay type: functional
[23] = P. falciparum Dd2 growth inhibitors, dose response, SYBR Green, dry powder samples, set 4 (AID 1159572); assay type: functional, cell-based
NADPH oxidase 1 = NADPH oxidase 1 (Homo sapiens, UniProt Q9Y5S8); experiment: Late-stage luminescence-based cell-based dose response assay to identify inhibitors of NADPH oxidase 1 (NOX1): Synthesized analogs 3.; assay type: functional
Estrogen receptor = molecular target: T3, Estrogen receptor (Homo sapiens, UniProt P03372); experiment: potentiators of ERα–SRC-1 coactivator binding, dose response, biochemical, TR-FRET, ERα LBD (AID 737)
T3 sequence (P03372 whole entry): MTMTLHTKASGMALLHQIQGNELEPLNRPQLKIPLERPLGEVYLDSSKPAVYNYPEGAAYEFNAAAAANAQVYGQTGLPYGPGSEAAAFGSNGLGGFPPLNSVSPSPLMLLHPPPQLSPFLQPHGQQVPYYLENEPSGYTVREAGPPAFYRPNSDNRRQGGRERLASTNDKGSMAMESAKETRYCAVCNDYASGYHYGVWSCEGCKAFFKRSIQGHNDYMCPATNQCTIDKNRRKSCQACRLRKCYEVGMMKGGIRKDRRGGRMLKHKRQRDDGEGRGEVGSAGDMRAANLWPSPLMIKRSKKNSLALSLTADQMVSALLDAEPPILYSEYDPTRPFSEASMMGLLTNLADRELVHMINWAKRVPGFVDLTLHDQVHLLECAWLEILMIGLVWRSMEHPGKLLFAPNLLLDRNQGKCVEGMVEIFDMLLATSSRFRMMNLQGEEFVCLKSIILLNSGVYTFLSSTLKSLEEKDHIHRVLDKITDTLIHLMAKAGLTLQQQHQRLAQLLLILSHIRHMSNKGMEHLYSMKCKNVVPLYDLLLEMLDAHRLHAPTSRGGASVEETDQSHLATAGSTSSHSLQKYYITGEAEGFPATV

[24] = molecular target: T1, Photoreceptor-specific nuclear receptor; assay type: functional, cell-based

Chain of Peroxisome proliferator-activated receptor gamma/Nuclear receptor corepressor 2 (P37231 whole entry): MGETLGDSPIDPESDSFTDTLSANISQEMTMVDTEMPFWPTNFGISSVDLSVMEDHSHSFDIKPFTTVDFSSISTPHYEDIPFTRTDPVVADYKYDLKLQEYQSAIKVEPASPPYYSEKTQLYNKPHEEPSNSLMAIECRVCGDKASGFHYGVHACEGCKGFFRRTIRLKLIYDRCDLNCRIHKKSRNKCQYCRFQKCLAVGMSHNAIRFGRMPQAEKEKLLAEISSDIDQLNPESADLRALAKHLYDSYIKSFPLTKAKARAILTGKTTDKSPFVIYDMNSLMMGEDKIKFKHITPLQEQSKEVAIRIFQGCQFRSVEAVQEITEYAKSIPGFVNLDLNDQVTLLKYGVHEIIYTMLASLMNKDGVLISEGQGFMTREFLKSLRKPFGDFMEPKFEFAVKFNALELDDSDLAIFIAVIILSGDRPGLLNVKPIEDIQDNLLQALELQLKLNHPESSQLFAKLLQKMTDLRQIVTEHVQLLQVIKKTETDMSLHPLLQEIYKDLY
Chain of Peroxisome proliferator-activated receptor gamma/Nuclear receptor corepressor 2 (Q9Y618 whole entry): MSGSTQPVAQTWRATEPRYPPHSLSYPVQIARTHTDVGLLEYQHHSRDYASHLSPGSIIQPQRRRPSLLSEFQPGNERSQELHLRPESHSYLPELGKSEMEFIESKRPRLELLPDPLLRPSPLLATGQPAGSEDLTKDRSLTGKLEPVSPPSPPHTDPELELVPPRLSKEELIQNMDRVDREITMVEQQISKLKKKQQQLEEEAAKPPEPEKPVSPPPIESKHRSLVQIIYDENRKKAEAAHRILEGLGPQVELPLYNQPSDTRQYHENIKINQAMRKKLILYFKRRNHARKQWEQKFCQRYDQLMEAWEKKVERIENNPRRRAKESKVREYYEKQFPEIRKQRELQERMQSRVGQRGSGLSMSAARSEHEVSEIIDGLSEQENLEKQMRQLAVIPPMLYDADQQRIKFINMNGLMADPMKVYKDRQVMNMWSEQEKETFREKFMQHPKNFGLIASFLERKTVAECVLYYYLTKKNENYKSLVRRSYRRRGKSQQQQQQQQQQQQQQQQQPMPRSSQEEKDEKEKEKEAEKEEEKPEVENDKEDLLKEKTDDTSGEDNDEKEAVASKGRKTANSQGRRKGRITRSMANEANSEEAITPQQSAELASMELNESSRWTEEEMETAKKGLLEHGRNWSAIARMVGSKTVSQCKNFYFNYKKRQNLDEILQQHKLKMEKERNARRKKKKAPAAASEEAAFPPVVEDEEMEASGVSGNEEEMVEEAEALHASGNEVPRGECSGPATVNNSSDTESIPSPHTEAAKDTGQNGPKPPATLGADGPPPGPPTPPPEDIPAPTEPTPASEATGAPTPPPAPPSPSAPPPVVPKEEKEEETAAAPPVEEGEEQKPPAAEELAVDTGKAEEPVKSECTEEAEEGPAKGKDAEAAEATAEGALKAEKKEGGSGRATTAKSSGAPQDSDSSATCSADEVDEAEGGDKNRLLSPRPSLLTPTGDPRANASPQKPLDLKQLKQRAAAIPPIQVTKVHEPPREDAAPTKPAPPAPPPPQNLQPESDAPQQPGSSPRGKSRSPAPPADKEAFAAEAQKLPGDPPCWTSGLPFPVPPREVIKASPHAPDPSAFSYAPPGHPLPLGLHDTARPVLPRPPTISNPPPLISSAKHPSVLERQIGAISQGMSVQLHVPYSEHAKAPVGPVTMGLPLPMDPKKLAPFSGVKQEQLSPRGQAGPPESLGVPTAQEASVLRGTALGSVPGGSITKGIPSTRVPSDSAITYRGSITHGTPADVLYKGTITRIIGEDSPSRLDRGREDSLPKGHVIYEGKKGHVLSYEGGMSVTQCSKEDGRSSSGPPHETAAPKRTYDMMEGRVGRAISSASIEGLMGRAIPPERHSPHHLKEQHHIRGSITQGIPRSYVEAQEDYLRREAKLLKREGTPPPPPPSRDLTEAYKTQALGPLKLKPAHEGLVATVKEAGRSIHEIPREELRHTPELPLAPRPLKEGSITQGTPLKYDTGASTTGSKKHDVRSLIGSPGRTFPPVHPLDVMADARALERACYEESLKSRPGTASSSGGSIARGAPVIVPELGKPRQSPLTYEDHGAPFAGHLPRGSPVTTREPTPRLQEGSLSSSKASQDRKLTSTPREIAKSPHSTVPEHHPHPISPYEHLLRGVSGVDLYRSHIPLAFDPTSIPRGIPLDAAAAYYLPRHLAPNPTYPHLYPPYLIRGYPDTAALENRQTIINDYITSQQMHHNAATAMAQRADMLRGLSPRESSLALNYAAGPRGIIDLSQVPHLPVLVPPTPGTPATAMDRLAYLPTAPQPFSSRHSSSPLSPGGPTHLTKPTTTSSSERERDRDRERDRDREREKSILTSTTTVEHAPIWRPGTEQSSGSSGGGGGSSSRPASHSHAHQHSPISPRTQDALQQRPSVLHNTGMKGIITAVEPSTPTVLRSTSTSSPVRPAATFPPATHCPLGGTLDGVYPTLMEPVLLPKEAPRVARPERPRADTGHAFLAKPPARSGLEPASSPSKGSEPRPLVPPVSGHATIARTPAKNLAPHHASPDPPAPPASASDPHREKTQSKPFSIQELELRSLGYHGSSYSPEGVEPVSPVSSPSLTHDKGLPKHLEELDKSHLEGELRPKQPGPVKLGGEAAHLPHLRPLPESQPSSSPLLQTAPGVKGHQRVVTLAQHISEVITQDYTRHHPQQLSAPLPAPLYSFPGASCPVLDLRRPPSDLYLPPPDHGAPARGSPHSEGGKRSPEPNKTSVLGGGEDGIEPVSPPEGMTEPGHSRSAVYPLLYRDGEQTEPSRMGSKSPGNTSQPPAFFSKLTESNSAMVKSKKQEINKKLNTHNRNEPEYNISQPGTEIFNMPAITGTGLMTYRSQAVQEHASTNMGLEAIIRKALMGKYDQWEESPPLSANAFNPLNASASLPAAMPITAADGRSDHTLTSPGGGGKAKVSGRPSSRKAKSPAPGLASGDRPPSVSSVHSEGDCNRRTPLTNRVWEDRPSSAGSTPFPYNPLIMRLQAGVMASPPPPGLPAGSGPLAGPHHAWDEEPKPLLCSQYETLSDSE

Cc1cc(C)nc(NS(=O)(=O)c2ccc(NC(=O)CSc3nc[nH]n3)cc2)n1
IC50 [1]: > 39.8 µM (not active)
IC50 [2]: > 39.8 µM (not active)

N#C[C@H]1[C@@H](c2ccc(C#CC3CCCC3)cc2)[C@@H](CO)N1S(=O)(=O)Cc1ccccc1
AC50 [3]: 3.05 µM (active)
AC50 [4]: 2.73 µM (active)
AC50 [5]: 2.06 µM (active)
AC50 [6]: 0.982 µM (active)
AC50 [7]: 3.23 µM (active)

CCOC(=O)c1c(C)n(C)c2ccc(OCC(O)Cn3nc(C)cc3C)cc12 (configuration not stated)
EC50 [8]: 4.71 µM (active)

Cc1cc(C(=O)COC(=O)C(O)c2ccccc2)c(C)n1Cc1ccccc1 (configuration not stated)
EC50 [9]: > 30 µM (not active)

CCCCCCCC(=O)OCC(COC(=O)CCCCCCC)OC(=O)CCCCCCC [TRICAPRILIN]
IC50 [10]: > 20 µM (inactive)
IC50 [11]: > 20 µM (inactive)
IC50 [12]: > 20 µM (inactive)
IC50 [13]: > 20 µM (inactive)
IC50 [14]: > 20 µM (inactive)
IC50 [15]: > 20 µM (inactive)
IC50 [16]: > 20 µM (inactive)
IC50 [17]: > 20 µM (inactive)

CC(C)(C)C1=CC(=O)C(N2CCOCC2)=CC1=O
IC50 (Nonstructural protein 1): > 100 µM (active)
EC50 [18]: > 100 µM (active)

CCOC(=O)C1CCN(C(=O)Cc2c(C(=O)O)n(C)c3ccccc23)CC1
EC50 [19]: > 50 µM (not active)

CCc1ccc(S(=O)(=O)N/N=C\c2ccc([N+](=O)[O-])o2)cc1
EC50 [20]: 2.02 µM (active)
EC50 [21]: > 112 µM (not active)
EC50 [22]: < 30 µM (active)

COc1ccc2c3c([nH]c2c1)[C@H](CO)N(C(C)=O)CC31CCN(C(=O)CN2CCOCC2)CC1
AC50 [23]: 2.59 µM (active)

CN1c2ccccc2Sc2cc(C(=O)c3ccccc3)ccc21
IC50 (NADPH oxidase 1): > 20 µM (not active)

Cc1ccc(NC(=O)CSc2nnnn2-c2ccc3c(c2)OCO3)cc1C
EC50 (Estrogen receptor): 8.47 µM (active)
IC50 [24]: 0.581 µM (active)
